Consider twelve compounds from ChEMBL document CHEMBL5370526, “Recent advances in EZH2-based dual inhibitors in the treatment of cancers” (Eur J Med Chem, 2023).

One assay deals with MCF-10A. The experiment in a line: Antiproliferative activity against human MCF-10A cells assessed as cell growth inhibition measured after 72 hrs by MTT assay. It is filed as functional, cell-based.
A short description of assay [1]: Antiproliferative activity against human DLBCL cells assessed as reduction in cell viability measured after 72 hrs by MTT assay. It is filed as functional, cell-based.
Assay [2] addresses T1, Histone-lysine N-methyltransferase EZH2 (Homo sapiens, UniProt Q15910).
Description: Inhibition of human EZH2 in human MCF-10A cells assessed as reduction in H3K27me3 levels incubated for 72 hrs by Western blot analysis
Assay [3] addresses T1, Histone-lysine N-methyltransferase EZH2. The source holds these as a separate data set.
Description: Inhibition of human EZH2 using core histone as substrate incubated for 1 hr by fluorescence based assay
For assay [4], the target named is Histone-lysine N-methyltransferase EZH2 (Homo sapiens, UniProt Q15910, Y641F). The assay is described as follows: Inhibition of N-terminal FLAG-tagged recombinant full-length human EZH2 Y641F mutant in PRC2 complex expressed in baculovirus infected Sf9 cells using H3K27me0 biotin/SAM as substrate preincubated for 10 mins followed by substrate addition measured after 4 hrs by HTRF assay.

The target in assay [5] is T1, Histone-lysine N-methyltransferase EZH2. The experiment in a line: Inhibition of EZH2 methyltransferase activity in human PA-1 cells assessed as reduction in H3K27me3 level measured after 4 days by Western blot analysis. It is filed as cell-based.
The next assay concerns ASPC1. The experiment in a line: Antiproliferative activity against human ASPC1 cells harboring KRAS G12D mutant assessed as reduction in cell growth measured after 72 hrs by MTT assay. In kind it is functional, cell-based. Conditions: ASPC1, 72 h.
The subject of the next assay is NCI-N87. The experiment in a line: Growth inhibition of human NCI-N87 cells assessed as reduction in cell viability measured after 72 hrs by MTT assay. In kind it is functional.
The next assay relates to G-401. The assay is described as follows: Growth inhibition of human G-401 cells assessed as reduction in cell viability measured after 72 hrs by MTT assay. In kind it is functional.
A further assay concerns HCT-116. The assay is described as follows: Cytotoxicity against human HCT-116 cells assessed as reduction in cell viability measured after 72 hrs by MTT assay. Conditions: HCT-116, 72 h. In kind it is functional, cell-based.
In assay [6] the test system is KARPAS-422. The experiment in a line: Growth inhibition of human KARPAS-422 cells assessed as reduction in cell viability measured after 72 hrs by MTT assay. In kind it is functional.
For assay [7], the system named is KARPAS-422. The assay is described as follows: Antitumor activity against human KARPAS-422 cells xenografted in nude mouse assessed as reduction in tumor growth at 100 mg/kg, po administered once daily for 14 consecutive days relative to control. In kind it is functional. As to conditions: read-out: TGI.
Assay [8] addresses T1, Histone-lysine N-methyltransferase EZH2. The experiment in a line: Inhibition of EZH2 (unknown origin) using plate-coated histone as substrate at 5 uM incubated for 90 mins in presence of 5 uM SAM by AlphaScreen assay.
For a further assay, the system named is A549. The assay is described as follows: Antiproliferative activity against human A549 cells assessed as reduction in cell viability measured after 48 hrs by MTT assay. In kind it is functional, cell-based. Conditions: A549, 48 h.
The target of assay [9] is T1, Histone-lysine N-methyltransferase EZH2. The assay is described as follows: Inhibition of wildtype EZH2 (unknown origin).
For assay [10] the target is unchanged. The experiment in a line: Inhibition of EZH2 (unknown origin) using SAM as substrate preincubated for 10 mins followed by substrate addition and measured after 4 hrs by HTRF assay.
The next assay has as its system MV4-11. The experiment in a line: Growth inhibition of human MV4-11 cells assessed as reduction in cell viability measured after 72 hrs by MTT assay. In kind it is functional.
Another assay relates to RS4-11. The experiment in a line: Growth inhibition of human RS4-11 cells assessed as reduction in cell viability measured after 72 hrs by MTT assay. In kind it is functional.

T1 sequence (Q15910 whole entry): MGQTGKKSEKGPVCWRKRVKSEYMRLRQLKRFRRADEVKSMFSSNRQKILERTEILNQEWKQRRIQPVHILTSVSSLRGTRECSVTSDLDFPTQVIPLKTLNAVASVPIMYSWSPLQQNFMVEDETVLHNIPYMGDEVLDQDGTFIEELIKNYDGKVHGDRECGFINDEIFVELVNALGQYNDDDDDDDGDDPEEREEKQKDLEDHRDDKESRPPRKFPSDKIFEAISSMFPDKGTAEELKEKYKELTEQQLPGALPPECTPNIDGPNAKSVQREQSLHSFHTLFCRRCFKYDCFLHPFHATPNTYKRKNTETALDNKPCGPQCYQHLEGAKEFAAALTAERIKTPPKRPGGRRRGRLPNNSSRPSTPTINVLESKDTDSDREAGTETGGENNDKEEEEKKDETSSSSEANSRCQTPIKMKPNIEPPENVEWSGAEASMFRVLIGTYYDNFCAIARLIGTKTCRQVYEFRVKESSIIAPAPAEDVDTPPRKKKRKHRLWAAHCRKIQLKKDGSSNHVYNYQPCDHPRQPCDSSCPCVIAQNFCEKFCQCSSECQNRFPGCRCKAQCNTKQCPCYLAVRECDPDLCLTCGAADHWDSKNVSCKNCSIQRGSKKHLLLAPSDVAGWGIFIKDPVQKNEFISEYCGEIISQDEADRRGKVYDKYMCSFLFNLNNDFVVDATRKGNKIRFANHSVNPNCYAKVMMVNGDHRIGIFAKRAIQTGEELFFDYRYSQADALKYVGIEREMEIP
Chain of Histone-lysine N-methyltransferase EZH2 (Homo sapiens, UniProt Q15910, Y641F) (Q15910 whole entry Y641F): as the sequence (Q15910 whole entry) above, with Y641F counted along it

With `COc1cc2nc(N3CCN(C)CC3)nc(NC3CCN(Cc4ccccc4)CC3)c2cc1OC`, the concentration for half-maximal inhibition (IC50) in the assay with MCF-10A was > 15000 nM.

Take `CCCc1cc(C)[nH]c(=O)c1CNC(=O)c1cc(-c2ccc(N3CCN(C(C)C)CC3)nc2)cc2c1cnn2C(C)C`: in [1], the concentration giving a half-maximal response (EC50) was determined as 633 nM. In addition, the IC50 in assay [2] and in [3] was < 10 nM each time.

As for `CCCc1cc(C)[nH]c(=O)c1CNC(=O)c1cc(-c2ccc(N3CCN(C)CC3)nc2)nc2c1cnn2C(C)C`, in [4], the 50% inhibitory concentration (IC50) came to 80 nM.

Regarding `CCN(c1cc(-c2ccc(CN3CCN(CCCCCCCOc4cccc5c4C(=O)N(C4CCC(=O)NC4=O)C5=O)CC3)cc2)cc(C(=O)NCc2c(C)cc(C)[nH]c2=O)c1C)C1CCOCC1` (configuration not stated), the half-maximal inhibitory concentration (IC50) in assay [5] is < 5 nM.

For `CCN(c1cc(-c2ccc(OCCCCCNC(=O)C[C@@H]3N=C(c4ccc(Cl)cc4)c4c(sc(C)c4C)-n4c(C)nnc43)cc2)cc(C(=O)NCc2c(C)cc(C)[nH]c2=O)c1C)C1CCOCC1`, in the assay on ASPC1, the IC50 turned out to be 690 nM.

As to `Cc1cc(C)c(CNC(=O)c2cc(Br)c3c(c2C)O[C@@](C)([C@H]2CC[C@H](N(C)C)CC2)O3)c(=O)[nH]1`, the 50% growth inhibitory concentration (GI50) worked out at 536 nM in the assay on NCI-N87, 17.7 nM with G-401 and 4 nM with KARPAS-422 [6]. In addition, the half-inhibitory concentration (IC50) in the assay with HCT-116 is 0.62 nM.

In the case of `CCN1CCN(c2ccc(-c3cc(C(=O)NCc4c(C)cc(C)[nH]c4=O)c(C)c4c3O[C@](C)(CN3CCOCC3)O4)cn2)CC1`, the inhibition in vivo at 100 mg/kg in the assay with KARPAS-422 [7] came to 82%. The half-inhibitory concentration (IC50) with HCT-116 was found to be 0.55 nM. Besides, the GI50 with KARPAS-422 [6] was 210 nM.

As for `CCN(c1cc(-c2ccc(CN3CCN(C(=O)CCCCCCCC(=O)N[C@H](C(=O)N4C[C@H](O)C[C@H]4C(=O)NCc4ccc(-c5scnc5C)cc4)C(C)(C)C)CC3)cc2)cc(C(=O)NCc2c(C)cc(C)[nH]c2=O)c1C)C1CCOCC1`, the IC50 in assay [8] came out at 8600 nM.

In the case of `Cc1cc(C)c(CNC(=O)c2c(C)cn(Cc3ccc(C(F)(F)F)cc3)c2C)c(=O)[nH]1`, the half-inhibitory concentration (IC50) in the assay on A549 was determined as 270000 nM.

`CCN(c1cc(C(=O)NCc2c(C)cc(C)[nH]c2=O)c2cc(CN3CCCCC3)oc2c1)C1CCOCC1` came in with an IC50 in assay [9] of 6.4 nM.

`Cc1cc(C)c(CNC(=O)c2cc(-c3ccc(N4CCN(CCNC(=O)C56CC7CC(CC(C7)C5)C6)CC4)nc3)cc3c2cnn3C(C)C)c(=O)[nH]1` returned a half-maximal inhibitory concentration (IC50) in [10] of 120 nM.

Turning to `Cc1cc(C)c(CNC(=O)c2cc(Cl)c3c(c2C)O[C@@](C)([C@H]2CC[C@H](N(C)C)CC2)O3)c(=O)[nH]1` [VALEMETOSTAT], the 50% growth inhibitory concentration (GI50) in the assay on MV4-11 was 4.8 nM; with KARPAS-422 [6] it was 4.8 nM; in the assay with RS4-11 it was 78.3 nM. The half-inhibitory concentration (IC50) with HCT-116 stood at 24 nM.
